Test results: ChEMBL document CHEMBL4312031, “Discovery of candesartan cilexetic as a novel neddylation inhibitor for suppressing tumor growth” (Eur J Med Chem, 2020)
The source made the active and inactive calls. No cut-off for these calls is given here.

Assays:
[1] = tested on: A549; test: Cell cycle arrest in human A549 cells assessed as accumulation at G2 phase at 50 uM measured after 24 hrs by propidium iodide/RNase A staining based flow cytometry analysis (reference value: 12.69 %); format: functional
[2] = tested on: A549; test: Cell cycle arrest in human A549 cells assessed as accumulation at sub-G1 phase at 25 uM measured after 24 hrs by propidium iodide/RNase A staining based flow cytometry analysis (reference value: 0.89 %); format: functional
[3] = target: T1, NEDD8/Cullin-1 (Homo sapiens) (UniProt Q13616+Q15843); test: Competitive inhibition of Nedd8-cullin1 (unknown origin) adduct formation at 12.5 to 50 uM assessed as increase in substrate Km by Lineweaver-Burk plot analysis; format: protein assay
[4] = target: T1, NEDD8/Cullin-1 (Homo sapiens); test: Inhibition of Nedd8-cullin1 adduct formation in human A549 cells assessed as decrease in cullin1 neddylation at 100 uM incubated for 6 to 12 hrs by Western blot analysis; format: cell-based
[5] = tested on: A549; test: Antitumor activity against human A549 cells xenografted in nude mouse assessed as decrease in tumor weight at 30 mg/kg, ip qd measured after 22 days; format: functional, organism-based
[6] = tested on: A549; test: Cell cycle arrest in human A549 cells assessed as accumulation at G2 phase at 75 uM measured after 24 hrs by propidium iodide/RNase A staining based flow cytometry analysis (reference value: 12.69 %); format: functional
[7] = tested on: A549; test: Induction of apoptosis in human A549 cells assessed as late apoptotic cells at 75 uM measured after 48 hrs by AnnexinV-FITC/propidium iodide staining based FACS analysis (reference value: 1.71 %); format: functional
[8] = tested on: MCF7; test: Antiproliferative activity against human MCF7 cells measured after 48 hrs by CCK8 assay; format: functional, cell-based; settings: MCF7, 48 h
[9] = tested on: A549; test: Inhibition of cullin-RING ligase in human A549 cells assessed as accumulation of p27 level at 50 to 125 uM and measured after 6 to 12 hrs by Western blot analysis; format: cell-based
[10] = target: T2, NEDD8-conjugating enzyme Ubc12 (Homo sapiens) (UniProt P61081); test: Inhibition of UBC12 in human A549 cells assessed as decrease in Cullin4a-Nedd8 adduct level at 50 uM measured after 6 to 12 hrs by Western blot analysis; format: cell-based
T2 sequence (whole entry): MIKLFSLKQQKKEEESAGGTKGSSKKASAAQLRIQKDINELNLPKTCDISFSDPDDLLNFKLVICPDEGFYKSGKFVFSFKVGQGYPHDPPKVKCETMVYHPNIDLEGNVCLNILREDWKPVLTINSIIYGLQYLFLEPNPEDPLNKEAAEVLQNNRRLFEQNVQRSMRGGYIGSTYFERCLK

[11] = tested on: EKVX; test: Antiproliferative activity against human EKVX cells measured after 48 hrs by CCK8 assay; format: functional, cell-based
[12] = target: T1, NEDD8/Cullin-1 (Homo sapiens); test: Inhibition of Nedd8-cullin1 (unknown origin) adduct formation assessed as decrease in cullin1 neddylation at 50 uM preincubated for 10 mins followed by ATP addition and measured after 30 mins by immunoblot analysis; format: protein assay
[13] = tested on: A549; test: Antitumor activity against human A549 cells xenografted in nude mouse assessed as decrease in tumor size at 30 mg/kg, ip qd measured after 22 days; format: functional, organism-based
[14] = tested on: A549; test: Induction of apoptosis in human A549 cells assessed as early apoptotic cells at 50 uM measured after 48 hrs by AnnexinV-FITC/propidium iodide staining based FACS analysis (reference value: 2.19 %); format: functional
[15] = target: T3, Ubiquitin-conjugating enzyme E2 C (Homo sapiens) (UniProt O00762); test: Inhibition of UbcH10 in human A549 cells assessed as reduction in protein ubiquitination by measuring Ubc10-ub adduct formation at 50 to 100 uM by Western blot analysis; format: cell-based
T3 sequence (whole entry): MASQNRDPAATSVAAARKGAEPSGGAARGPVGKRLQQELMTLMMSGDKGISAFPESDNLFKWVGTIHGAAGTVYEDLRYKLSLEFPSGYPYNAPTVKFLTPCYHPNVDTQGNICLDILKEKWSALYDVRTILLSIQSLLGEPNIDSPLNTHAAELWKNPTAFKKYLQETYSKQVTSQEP

[16] = target: T2, NEDD8-conjugating enzyme Ubc12 (Homo sapiens); test: Inhibition of UBC12 in human A549 cells assessed as decrease in Cullin1-Nedd8 adduct level at 50 uM measured after 6 to 12 hrs by Western blot analysis; format: cell-based
[17] = tested on: A549; test: Cell cycle arrest in human A549 cells assessed as accumulation at S phase at 50 uM measured after 24 hrs by propidium iodide/RNase A staining based flow cytometry analysis (reference value: 21.54 %); format: functional
[18] = target: T4, NEDD8-conjugating enzyme UBE2F (Homo sapiens) (UniProt Q969M7); test: Inhibition of UBE2F in human A549 cells assessed as decrease in Cullin5-Nedd8 adduct level at 50 uM measured after 6 to 12 hrs by Western blot analysis; format: cell-based
T4 sequence (whole entry): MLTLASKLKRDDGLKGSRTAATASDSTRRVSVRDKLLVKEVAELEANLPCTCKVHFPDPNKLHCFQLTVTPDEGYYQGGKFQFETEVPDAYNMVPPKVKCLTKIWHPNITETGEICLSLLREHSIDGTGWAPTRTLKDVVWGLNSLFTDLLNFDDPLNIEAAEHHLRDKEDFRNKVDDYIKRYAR

[19] = target: T2, NEDD8-conjugating enzyme Ubc12 (Homo sapiens); test: Inhibition of UBC12 in human A549 cells assessed as decrease in Cullin1-Nedd8 adduct level measured after 6 to 12 hrs by Western blot analysis; format: cell-based
[20] = tested on: A549; test: Induction of apoptosis in human A549 cells assessed as early apoptotic cells at 75 uM measured after 48 hrs by AnnexinV-FITC/propidium iodide staining based FACS analysis (reference value: 2.19 %); format: functional
[21] = tested on: A549; test: Antitumor activity against human A549 cells xenografted in nude mouse assessed as decrease in tumor size at 60 mg/kg, ip qd measured after 22 days; format: functional, organism-based
[22] = tested on: A549; test: Cell cycle arrest in human A549 cells assessed as accumulation at sub-G1 phase at 75 uM measured after 24 hrs by propidium iodide/RNase A staining based flow cytometry analysis (reference value: 0.89 %); format: functional
[23] = tested on: NCI-H1299; test: Antiproliferative activity against human H1299 cells measured after 48 hrs by CCK8 assay; format: functional, cell-based; settings: NCI-H1299, 48 h
[24] = tested on: A549; test: Induction of apoptosis in human A549 cells assessed as early apoptotic cells at 25 uM measured after 48 hrs by AnnexinV-FITC/propidium iodide staining based FACS analysis (reference value: 2.19 %); format: functional
[25] = tested on: BEAS-2B; test: Cytotoxicity against human BEAS2B cells after 48 hrs by CCK-8 assay; format: cell-based
[26] = target: T2, NEDD8-conjugating enzyme Ubc12 (Homo sapiens); test: Inhibition of UBC12 in human A549 cells assessed as decrease in Cullin4a-Nedd8 adduct level measured after 6 to 12 hrs by Western blot analysis; format: cell-based
[27] = tested on: 16HBE14o-; test: Cytotoxicity against human 16HBE cells after 48 hrs by CCK-8 assay; format: cell-based
[28] = tested on: A549; test: Inhibition of cullin-RING ligase in human A549 cells assessed as accumulation of Wee1 level at 50 to 125 uM and measured after 6 to 12 hrs by Western blot analysis; format: cell-based

T1 sequence (Q13616 whole entry, looked up): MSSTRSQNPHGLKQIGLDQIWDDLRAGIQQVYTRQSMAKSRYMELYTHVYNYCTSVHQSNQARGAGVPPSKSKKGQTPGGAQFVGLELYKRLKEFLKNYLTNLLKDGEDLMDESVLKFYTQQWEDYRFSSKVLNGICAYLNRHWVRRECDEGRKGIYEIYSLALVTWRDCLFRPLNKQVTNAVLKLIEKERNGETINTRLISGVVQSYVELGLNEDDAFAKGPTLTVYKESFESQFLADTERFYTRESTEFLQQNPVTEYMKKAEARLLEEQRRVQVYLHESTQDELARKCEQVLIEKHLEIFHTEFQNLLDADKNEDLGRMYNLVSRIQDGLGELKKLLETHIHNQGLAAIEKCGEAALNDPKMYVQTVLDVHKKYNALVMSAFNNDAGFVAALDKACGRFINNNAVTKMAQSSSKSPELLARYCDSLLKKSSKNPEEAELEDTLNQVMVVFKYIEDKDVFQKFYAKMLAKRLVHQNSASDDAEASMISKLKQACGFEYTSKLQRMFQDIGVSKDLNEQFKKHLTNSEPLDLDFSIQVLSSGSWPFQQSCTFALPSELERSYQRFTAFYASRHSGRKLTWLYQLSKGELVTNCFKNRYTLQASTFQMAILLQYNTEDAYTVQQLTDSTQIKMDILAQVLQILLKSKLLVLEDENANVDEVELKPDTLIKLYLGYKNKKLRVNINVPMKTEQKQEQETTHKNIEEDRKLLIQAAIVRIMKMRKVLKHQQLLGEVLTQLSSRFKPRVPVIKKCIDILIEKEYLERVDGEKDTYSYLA
T1 sequence (Q15843 whole entry, looked up): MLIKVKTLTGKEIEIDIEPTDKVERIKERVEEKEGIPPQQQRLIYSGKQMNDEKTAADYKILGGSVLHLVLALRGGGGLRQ

inhibition [3]: Active
inhibition [4]: Active
IC50 [8]: > 100 µM
inhibition [10]: Active
inhibition [12]: Active
inhibition [15]: inactive
inhibition [16]: Active
inhibition [18]: Active
inhibition [19]: Dose-dependent effect
IC50 [23]: 45.1 µM
inhibition [26]: Dose-dependent effect
SMILES: CCOc1nc2cccc(C(=O)OC(C)OC(=O)OC3CCCCC3)c2n1Cc1ccc(-c2ccccc2-c2nn[nH]n2)cc1 (stereo not drawn) [CANDESARTAN CILEXETIL]
Activity [1]: 6.79%
Activity [2]: 9.54%
Activity [5]: Active
Activity [6]: 8.15%
Activity [7]: 14.26%
inhibition [9]: Active
IC50 [11]: > 100 µM
Activity [13]: Active
Activity [14]: 11.77%
Activity [17]: 11.53%
Activity [20]: 36.64%
Activity [21]: Active
Activity [22]: 30.45%
Activity [24]: 4.1%
IC50 [25]: 89.9 µM
IC50 [27]: > 100 µM
inhibition [28]: Active
